Reference: PubChem BioAssay AID330 (DTP/NCI, 2004)
Where “and” joins values, the source holds several entries; their conditions need not be identical. Equal entries are not always repeated. Inconclusive results and toxic doses are left out.

System: P388 leukemia ip, CD2F1 mice, survival T/C
Test: NCI In Vivo Anticancer Drug Screen. Data for tumor model P388 Leukemia (intraperitoneal) in CD2F1 (CDF1) mice
Settings: endpoint: median survival time, higher = longer survival
Method in brief: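 Mice carrying the transplanted tumor received test compound or vehicle. Survival was recorded in each group, and the value is the treated-group measurement divided by that of the vehicle-treated control group.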

[1] = dose: 50.0 mg/kg/injection, schedule: Q01DX005 (ip), vehicle: Klucel (hydroxypropylcellulose) (HPC)
[2] = dose: 100.0 mg/kg/injection, schedule: Q01DX005 (ip), vehicle: Klucel (hydroxypropylcellulose) (HPC)
[3] = dose: 200.0 mg/kg/injection, schedule: Q01DX005 (ip), vehicle: Klucel (hydroxypropylcellulose) (HPC)
[4] = dose: 25.0 mg/kg/injection, schedule: Q01DX009 (ip), vehicle: saline with Tween-80
[5] = dose: 100.0 mg/kg/injection, schedule: Q01DX001 (ip), vehicle: saline with Tween-80
[6] = dose: 200.0 mg/kg/injection, schedule: Q01DX001 (ip), vehicle: saline with Tween-80
[7] = dose: 400.0 mg/kg/injection, schedule: Q01DX001 (ip), vehicle: saline with Tween-80
[8] = dose: 50.0 mg/kg/injection, schedule: Q01DX009 (ip), vehicle: saline with Tween-80
[9] = dose: 100.0 mg/kg/injection, schedule: Q01DX009 (ip), vehicle: saline with Tween-80
[10] = dose: 50.0 mg/kg/injection, schedule: Q01DX005 (ip), vehicle: saline with Tween-80
[11] = dose: 100.0 mg/kg/injection, schedule: Q01DX005 (ip), vehicle: saline with Tween-80
[12] = dose: 200.0 mg/kg/injection, schedule: Q01DX005 (ip), vehicle: saline with Tween-80
[13] = dose: 12.5 mg/kg/injection, schedule: Q04DX003 (ip), vehicle: saline with Tween-80
[14] = dose: 50.0 mg/kg/injection, schedule: Q01DX009 (ip), vehicle: Klucel (hydroxypropylcellulose) (HPC)
[15] = dose: 100.0 mg/kg/injection, schedule: Q01DX009 (ip), vehicle: Klucel (hydroxypropylcellulose) (HPC)
[16] = dose: 200.0 mg/kg/injection, schedule: Q01DX009 (ip), vehicle: Klucel (hydroxypropylcellulose) (HPC)
[17] = dose: 50.0 mg/kg/injection, schedule: Q01DX009 (ip), vehicle: saline
[18] = dose: 100.0 mg/kg/injection, schedule: Q01DX009 (ip), vehicle: saline
[19] = dose: 200.0 mg/kg/injection, schedule: Q01DX009 (ip), vehicle: saline
[20] = dose: 200.0 mg/kg/injection, schedule: Q01DX009 (ip), vehicle: saline with Tween-80

SMILES: CCOC(=O)/C(C#N)=C/c1ccc(OC)c(OC)c1
- T/C [1]: 99 % of control
- T/C [2]: 108 % of control
- T/C [3]: 100 % of control

SMILES: C1CC[N-]CC1.C1CC[N-]CC1.C1CC[N-]CC1.[Cl][Rh]([Cl])[Cl]
- T/C (dose: 1.0 mg/kg/injection, schedule: Q03HX024 (ip), vehicle: saline): 100 % of control and 96 % of control
- T/C (dose: 2.0 mg/kg/injection, schedule: Q03HX016 (ip), vehicle: saline): 97 % of control
- T/C (dose: 2.0 mg/kg/injection, schedule: Q03HX024 (ip), vehicle: saline): 96 % of control and 98 % of control
- T/C (dose: 4.0 mg/kg/injection, schedule: Q01DX009 (ip), vehicle: saline): 98 % of control
- T/C (dose: 4.0 mg/kg/injection, schedule: Q03HX016 (ip), vehicle: saline): 96 % of control
- T/C (dose: 4.0 mg/kg/injection, schedule: Q03HX024 (ip), vehicle: saline): 96 % of control
- T/C (dose: 8.0 mg/kg/injection, schedule: Q03HX016 (ip), vehicle: saline): 110 % of control and 96 % of control
- T/C (dose: 8.0 mg/kg/injection, schedule: Q03HX024 (ip), vehicle: saline): 97 % of control
- T/C (dose: 8.0 mg/kg/injection, schedule: Q04DX003 (ip), vehicle: saline): 100 % of control
- T/C (dose: 16.0 mg/kg/injection, schedule: Q01DX001 (ip), vehicle: saline): 110 % of control
- T/C (dose: 16.0 mg/kg/injection, schedule: Q03HX008 (ip), vehicle: saline): 119 % of control
- T/C (dose: 16.0 mg/kg/injection, schedule: Q03HX024 (ip), vehicle: saline): 97 % of control
- T/C [4]: 154 % of control
- T/C (dose: 32.0 mg/kg/injection, schedule: Q01DX009 (ip), vehicle: saline): 118 % of control
- T/C (dose: 32.0 mg/kg/injection, schedule: Q03HX008 (ip), vehicle: saline): 110 % of control
- T/C (dose: 32.0 mg/kg/injection, schedule: Q03HX016 (ip), vehicle: saline): 96 % of control
- T/C (dose: 32.0 mg/kg/injection, schedule: Q03HX024 (ip), vehicle: saline): 96 % of control and 97 % of control
- T/C (dose: 64.0 mg/kg/injection, schedule: Q01DX001 (ip), vehicle: saline): 110 % of control
- T/C (dose: 64.0 mg/kg/injection, schedule: Q01DX009 (ip), vehicle: saline): 118 % of control
- T/C (dose: 64.0 mg/kg/injection, schedule: Q08DX002 (ip), vehicle: saline): 110 % of control

SMILES: COc1ccccc1-n1c(C)nc2c(cnn2C)c1=O
- T/C [1]: 100 % of control
- T/C [2]: 100 % of control
- T/C [3]: 103 % of control

SMILES: Cc1ccc2ccccc2c1NS(=O)(=O)c1ccccc1
- T/C [5]: 95 % of control
- T/C [6]: 95 % of control
- T/C [7]: 91 % of control

SMILES: CN1C(=O)CC(Sc2ccccc2)c2cc(Cl)ccc21 (configuration not stated)
- T/C [4]: 99 % of control
- T/C [8]: 100 % of control
- T/C [9]: 97 % of control

SMILES: Cc1ccc(S(=O)(=O)N=C(N(C)C)N(C)C)cc1
- T/C (dose: 100.0 mg/kg/injection, schedule: Q04DX002 (ip), vehicle: saline with Tween-80): 99 % of control
- T/C (dose: 200.0 mg/kg/injection, schedule: Q04DX002 (ip), vehicle: saline with Tween-80): 100 % of control
- T/C (dose: 400.0 mg/kg/injection, schedule: Q04DX002 (ip), vehicle: saline with Tween-80): 104 % of control

SMILES: CC(=O)C(=Cc1c(N(C)c2ccccc2)nn2ccccc12)C(C)=O
- T/C [5]: 100 % of control
- T/C [6]: 100 % of control
- T/C [7]: 100 % of control

SMILES: Nc1nnnn1-n1cccc1
- T/C [10]: 103 % of control
- T/C [11]: 103 % of control
- T/C [12]: 103 % of control

SMILES: CCOC(=O)c1sc2nc(C)[nH]c(=O)c2c1C
- T/C [10]: 99 % of control

SMILES: Cc1ccc(C(=O)CCl)c(C)c1
- T/C [13]: 110 % of control
- T/C (dose: 25.0 mg/kg/injection, schedule: Q04DX003 (ip), vehicle: saline with Tween-80): 105 % of control
- T/C (dose: 50.0 mg/kg/injection, schedule: Q04DX003 (ip), vehicle: saline with Tween-80): 110 % of control

SMILES: CNC(=O)N1CCOC1c1ccc(NC(=O)OC)cc1 (configuration not stated)
- T/C (dose: 60.0 mg/kg/injection, schedule: Q01DX005 (ip), vehicle: saline with Tween-80): 96 % of control
- T/C (dose: 120.0 mg/kg/injection, schedule: Q01DX005 (ip), vehicle: saline with Tween-80): 90 % of control
- T/C (dose: 240.0 mg/kg/injection, schedule: Q01DX005 (ip), vehicle: saline with Tween-80): 95 % of control

SMILES: CNc1ncnc2ccc(Cl)cc12
- T/C [14]: 93 % of control
- T/C [15]: 102 % of control

SMILES: CC(=O)[O][Ge]([c]1ccccc1)([c]1ccccc1)[c]1ccccc1
- T/C [14]: 107 % of control
- T/C [15]: 107 % of control
- T/C [16]: 107 % of control
- T/C (dose: 400.0 mg/kg/injection, schedule: Q01DX009 (ip), vehicle: Klucel (hydroxypropylcellulose) (HPC)): 96 % of control

SMILES: CC(=O)Nc1ccc(-c2ccc(NC(C)=O)cc2)cc1
- T/C [17]: 105 % of control
- T/C [18]: 92 % of control
- T/C [19]: 92 % of control

SMILES: O=C1C=CC(=O)c2cc(Cl)c(Cl)cc21
- T/C (dose: 4.12 mg/kg/injection, schedule: Q01DX009 (ip), vehicle: saline with Tween-80): 109 % of control
- T/C (dose: 6.25 mg/kg/injection, schedule: Q01DX009 (ip), vehicle: saline with Tween-80): 113 % of control
- T/C (dose: 6.25 mg/kg/injection, schedule: Q04DX003 (ip), vehicle: saline with Tween-80): 91 % of control
- T/C [13]: 91 % of control

SMILES: CCCCCCC(/C=C/c1ccc(Cl)c(Cl)c1)=N\Nc1c(Cl)cccc1Cl
- T/C [14]: 91 % of control
- T/C [15]: 91 % of control
- T/C [16]: 87 % of control

SMILES: CC1(C)Cc2oc(=O)n(-c3ccccc3)c(=O)c2C1
- T/C [14]: 100 % of control
- T/C [15]: 102 % of control
- T/C [16]: 100 % of control

SMILES: CCCCCCC[CH2][Sn]([CH2]CCCCCCC)([CH2]CCCCCCC)[O]C(C)=O
- T/C [17]: 97 % of control
- T/C [18]: 100 % of control
- T/C [19]: 94 % of control

SMILES: COc1ccc(C(Br)C(C)Br)cc1 (configuration not stated)
- T/C [8]: 104 % of control
- T/C [9]: 90 % of control
- T/C [20]: 95 % of control

SMILES: COC(=O)C1(C)Cc2cc(OC(C)=O)c(OC(C)=O)cc2N1 (configuration not stated)
- T/C (dose: 25.0 mg/kg/injection, schedule: Q01DX001 (ip), vehicle: Klucel (hydroxypropylcellulose) (HPC)): 109 % of control
- T/C (dose: 50.0 mg/kg/injection, schedule: Q01DX001 (ip), vehicle: Klucel (hydroxypropylcellulose) (HPC)): 100 % of control
- T/C (dose: 100.0 mg/kg/injection, schedule: Q01DX001 (ip), vehicle: Klucel (hydroxypropylcellulose) (HPC)): 109 % of control
- T/C (dose: 200.0 mg/kg/injection, schedule: Q01DX001 (ip), vehicle: Klucel (hydroxypropylcellulose) (HPC)): 114 % of control

SMILES: O=c1n(-c2ccccc2)c(=O)n2n1C1CC3c4ccccc4C1C2C31CC1 (configuration not stated)
- T/C [10]: 104 % of control
- T/C [11]: 101 % of control
- T/C [12]: 92 % of control

SMILES: Cc1cc(C)c(OC2=C(c3c(C)cc(C)cc3C)C(=O)c3ccccc32)c(C)c1
- T/C [8]: 94 % of control
- T/C [9]: 94 % of control
- T/C [20]: 86 % of control

SMILES: CC(=O)Nc1ccc([Se](N)=O)cc1 (configuration not stated)
- T/C [10]: 89 % of control
- T/C [11]: 103 % of control
- T/C [12]: 111 % of control

SMILES: CC(=O)N1c2ccccc2Sc2ccc3ccc(C(=O)CCl)cc3c21
- T/C [9]: 115 % of control
